The values that follow come from US20140323443A1, “TIGECYCLINE FORMULATIONS” (Fresenius Kabi USA, LLC, priority 2013, published 2014).

The nature of data set [1]: pH of a saturated solution of tigecycline in water. The format is physicochemical. As to the method: A solid composition that includes tigecycline and arginine may further include an acid and/or a base. The pH of a saturated solution of tigecycline in water is about 8. The amount of the acid and/or base may be an amount sufficient to provide a pH in the range of from 4 to 6 when a composition containing 53 mg tigecycline is reconstituted in 5.3 mL of an aqueous carrier liquid, such as 0.9% sodium chloride injection. Preferably the amount of the acid and/or base may be an amount sufficient to provide a pH in the range of from 4.25 to 5.75, from 4.5 to 5.75, from 4.5 to 5.5, or from 4.75 to 5.25 when a composition containing 53 mg tigecycline is reconstituted in 5.3 mL of an aqueous carrier liquid. In some embodiments, hydrochloric acid and/or sodium hydroxide is used to adjust pH.

The conditions of data set [2]: cited from earlier work.
The conditions of data set [3]: aqueous liquid at 2-8° C., water sparged and tigecycline blanketed with inert gas, for 24 hours; cited from earlier work.

For `CN(C)c1cc(NC(=O)CNC(C)(C)C)c(O)c2c1C[C@H]1C[C@H]3[C@H](N(C)C)C(O)=C(C(N)=O)C(=O)[C@@]3(O)C(O)=C1C2=O` [tigecycline, (4S,4aS,5aR,12aS)-9-[2-(tert-butylamino)acetamido]-4,7-bis(dimethyl-amino)-1,4,4a,5,5a,6,11,12a-octahydro-3,10,12,12a-tetrahydroxy-1,11-dioxo-2-naphthacenecarboxamide], the “pH of a saturated solution in water” value in data set [1] is “about 8”. For the same molecule, in data set [2], the oral bioavailability entry is given as “poor”. For the same molecule, the “amount of tigecycline converted into degradants prior to lyophilization” value in data set [3] is listed as “below 1%”.
